US10597388B2, “Pyridazinone herbicides” (FMC CORPORATION, priority 2014, dated 2020)

Legend:
Experiment in all cases: Test C greenhouse herbicide test, pre- and postemergence
Assay type in all cases: in vivo
[1] = tested on: barnyardgrass (Echinochloa crus-galli)
Method in brief: (§1)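 Percent-control ratings (0 none, 100 complete) came from visual comparison with controls held alongside in the greenhouse for 13–15 d. Treatments covered soil application at sowing and foliar application to young plants 2–18 cm tall.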

[2] = tested on: blackgrass (Alopecurus myosuroides)
Method in brief: as §1

corn (Zea mays) = tested on: corn (Zea mays)
Method in brief: as §1

[3] = tested on: crabgrass, large (large crabgrass, Digitaria sanguinalis)
Method in brief: as §1

[4] = tested on: foxtail, giant (giant foxtail, Setaria faberii)
Method in brief: as §1

[5] = tested on: galium (catchweed bedstraw, Galium aparine)
Method in brief: as §1

[6] = tested on: johnsongrass (Sorghum halepense)
Method in brief: as §1

[7] = tested on: lambsquarters (Chenopodium album)
Method in brief: as §1

[8] = tested on: morningglory (Ipomoea coccinea)
Method in brief: as §1

[9] = tested on: nutsedge, yellow (yellow nutsedge, Cyperus esculentus)
Method in brief: as §1

[10] = tested on: oilseed rape (Brassica napus)
Method in brief: as §1

[11] = tested on: pigweed (Amaranthus retroflexus)
Method in brief: as §1

[12] = tested on: ragweed (common ragweed, Ambrosia elatior)
Method in brief: as §1

[13] = tested on: ryegrass, Italian (Italian ryegrass, Lolium multiflorum)
Method in brief: as §1

[14] = tested on: velvetleaf (Abutilon theophrasti)
Method in brief: as §1

[15] = tested on: waterhemp (common waterhemp, Amaranthus rudis)
Method in brief: as §1

[16] = Postemergence, 31 g ai/ha, 0 to 100 scale (0 no effect, 100 complete control)
[17] = Postemergence, 125 g ai/ha, scale 0 to 100, 0 is no effect, 100 is complete control
[18] = Postemergence, 250 g ai/ha, scale 0 to 100, 0 no effect, 100 complete control, 13 to 15 d
[19] = postemergence, 62 g ai/ha, scale 0 to 100, 0 no effect, 100 complete control

Cc1nn(C)c(=O)c(-c2c(C)sc3ccccc23)c1O [Compound 65]
Barnyardgrass plant response rating [1, 16]: 10 | Plant response rating, Barnyardgrass [1, 17]: 35 | Plant response rating, Barnyardgrass [1, 18]: 50 | Barnyardgrass plant response rating [1, 19]: 15 | Blackgrass plant response rating [2, 16]: 5 | Plant response rating, Blackgrass [2, 17]: 10 | Plant response rating, Blackgrass [2, 18]: 40 | Blackgrass plant response rating [2, 19]: 5 | Corn plant response rating (corn (Zea mays); [16]): 5 | Plant response rating, Corn (corn (Zea mays); [17]): 5 | Plant response rating, Corn (corn (Zea mays); [18]): 5 | Corn plant response rating (corn (Zea mays); [19]): 5 | Crabgrass, Large plant response rating [3, 16]: 5 | Plant response rating, Crabgrass, Large [3, 17]: 20 | Plant response rating, Crabgrass, Large [3, 18]: 25 | Crabgrass, Large plant response rating [3, 19]: 20 | Foxtail, Giant plant response rating [4, 16]: 10 | Plant response rating, Foxtail, Giant [4, 17]: 35 | Plant response rating, Foxtail, Giant [4, 18]: 60 | Foxtail, Giant plant response rating [4, 19]: 20 | Galium plant response rating [5, 16]: 85 | Plant response rating, Galium [5, 17]: 90 | Plant response rating, Galium [5, 18]: 90 | Galium plant response rating [5, 19]: 85 | Johnsongrass plant response rating [6, 16]: 5 | Plant response rating, Johnsongrass [6, 17]: 5 | Plant response rating, Johnsongrass [6, 18]: 5 | Johnsongrass plant response rating [6, 19]: 5 | Lambsquarters plant response rating [7, 16]: 90 | Plant response rating, Lambsquarters [7, 17]: 95 | Plant response rating, Lambsquarters [7, 18]: 100 | Lambsquarters plant response rating [7, 19]: 95 | Morningglory plant response rating [8, 16]: 75 | Plant response rating, Morningglory [8, 17]: 95 | Plant response rating, Morningglory [8, 18]: 95 | Morningglory plant response rating [8, 19]: 85 | Nutsedge, Yellow plant response rating [9, 16]: 25 | Plant response rating, Nutsedge, Yellow [9, 17]: 60 | Plant response rating, Nutsedge, Yellow [9, 18]: 65 | Nutsedge, Yellow plant response rating [9, 19]: 50 | Oilseed Rape plant response rating [10, 16]: 0 | Plant response rating, Oilseed Rape [10, 17]: 0 | Plant response rating, Oilseed Rape [10, 18]: 5 | Oilseed Rape plant response rating [10, 19]: 0 | Pigweed plant response rating [11, 16]: 90 | Plant response rating, Pigweed [11, 17]: 98 | Plant response rating, Pigweed [11, 18]: 100 | Pigweed plant response rating [11, 19]: 90 | Ragweed plant response rating [12, 16]: 55 | Plant response rating, Ragweed [12, 17]: 80 | Plant response rating, Ragweed [12, 18]: 90 | Ragweed plant response rating [12, 19]: 85 | Ryegrass, Italian plant response rating [13, 16]: 65 | Plant response rating, Ryegrass, Italian [13, 17]: 85 | Plant response rating, Ryegrass, Italian [13, 18]: 85 | Ryegrass, Italian plant response rating [13, 19]: 80 | Velvetleaf plant response rating [14, 16]: 10 | Plant response rating, Velvetleaf [14, 17]: 65 | Plant response rating, Velvetleaf [14, 18]: 75 | Velvetleaf plant response rating [14, 19]: 20 | Waterhemp plant response rating [15, 16]: 60 | Plant response rating, Waterhemp [15, 17]: 75 | Plant response rating, Waterhemp [15, 18]: 85 | Waterhemp plant response rating [15, 19]: 75
